In patent US11197911B2, “Peptidylic inhibitors targeting C9ORF72 hexanucleotide repeat-mediated neurodegeneration” (The Chinese University of Hong Kong, priority 2016, dated 2021):
“Also recorded” adds a separate entry of the source. No end group written: not given here.

Key:
nucleophosmin (B23) = test: Immunostaining, nucleolar stress marker B23 localization; format: cell-based; conditions: (GGGGCC)66-expressing SK-N-MC cells; 10 μM; 48 h
Experimental: (§1) SK-N-MC cells were seeded and grown on glass coverslips at a density of 0.8×10^5 in 24-well plate. Forty eight hours after treatment, cells were fixed with 4% paraformaldehyde followed by three times wash with 1×PBS. Cells were then permeabilized in 0.5% Triton X-100 for 10 min at room temperature followed by three washes with 1×PBS. After washing step, cells were blocked with 5% BSA in 1×PBS for 1 h at room temperature. The NCL (1:500, Abcam) or B23 (1:500, Abcam) antibody was then applied with 5% BSA (1:500) 2 h at room temperature. Once the primary antibody was removed, Cells were washed three times with 1×PBS and incubated with an anti-rabbit Cy3 or an anti-mouse Cy3 secondary antibody (1:400, Jackson Labs) 1 h at room temperature. After washing with 1×PBS, nuclei were counterstained with Hoechst 33342 (1 μg/ml, Thermo Fisher Scientific) prior to mounting coverslips. Images were obtained on an OLYMPUS FV1000 IX81-TIRF confocal microscope. A single focal plan was obtained through the centre of the nucleus. The method of quantification of NCL and B23 nuclear area fold change was described previously^7. In order to quantify both dispersed NCL and dense nucleolar NCL, a threshold setting in ImageJ ranging from 25-100 was used to measure the pixel area of NCL relative to the area of the nucleus outlined by the Hoechst staining. […]

UAS-(GGGGCC)36 flies [1] = test: Lifespan assay; format: in vivo, Drosophila; conditions: elavGS flies, RU486 200 μM plus peptide 50 μM in food
UAS-(GGGGCC)36 flies [2] = test: Climbing ability assay; format: in vivo, Drosophila; conditions: elavGS flies, RU486 200 μM plus peptide 50 μM in food, 10, 15, 20 and 25 dpe
Experimental: Fly climbing ability was analyzed by negative geotaxis.

UAS-(GGGGCC)36 flies [3] = test: External eye assay; format: in vivo, Drosophila; conditions: GMR-Gal4/UAS-(GGGGCC)36 flies; 100 μM feeding; 1 day-old adults
Experimental: (§2) Flies were raised at 25° C. on cornmeal medium supplemented with dry yeast. For […], third instar larvae were feed with 100 μM of TAT-P3L or TAT-P3LS1 dissolved in 2% sucrose solution for 2 h and then continued to culture in standard fly food. Eye images of 1 day-old adult of UAS-(GGGGCC)3 or UAS-(GGGGCC)36 flies were captured using a SPOT Insight CCD camera (Diagnostic instruments Inc.) on an Olympus SZX-12 stereomicroscope.

NCL = test: Immunostaining, nucleolar stress marker NCL localization; format: cell-based; conditions: (GGGGCC)66-expressing SK-N-MC cells; 10 μM; 48 h
Experimental: as §1

UAS-(GGGGCC)3 flies [4] = conditions: 50 μM in food
Experimental: For lifespan and climbing ability assay, flies of 2dpe were feed with food containing different drug combination including vehicle control (ethanol), Mifepristone (RU486, 200 μM), RU486 (200 μM) plus TAT-P3L (50 μM), and RU486 (200 μM) plus TAT-P3LS1 (50 μM). Mifepristone (RU486, 200 μM) was used to induce transgene expression. For climbing ability assay, 10-15 flies were allocated to each experimental vials (total of 90-100 flies per condition) and monitored every 5 days. Fly climbing ability was analyzed by negative geotaxis. Groups of ∞15 flies were anesthetized and placed in a vertical plastic column. After 1 h recovery, flies were banged to the bottom, and then scored for climbing ability as the percentage of flies remaining at the bottom (<2 cm) at 25 s. Three trials were performed at 3 min intervals in each experiment.

[5] = system: expanded CAG repeat-mediated nucleolar stress; conditions: polyQ disease; inventors' previous work (ref. 20); cited from earlier work
[6] = system: (GGGGCC)66-expressing SK-N-MC cells; test: LDH cytotoxicity assay, (GGGGCC)66-induced cell death; format: cell-based; conditions: for suppression of (GGGGCC)66-induced cell death compared with P3L (structure-activity relationship study): 10 μM, single alanine substitution mutants; for effect on (GGGGCC)66-induced cell death (LDH enzyme activity in medium): 0.1, 1, 10 and 20 μM peptide
Experimental: SK-N-MC cells were kindly provided by Prof. Dobrila D. Rudnicki (Johns Hopkins University, USA). […] Leonard Petrucelli (Mayo Clinic, USA).
For IC50 detection, various amount of TAT-P3L, 0.1, 0.5, 1, 10, 50, 100, 500, 1,000 and 10,000 nM were added to individual culture wells after transfection. Forty eight hours after treatment, LDH enzyme activity in the cell culture medium was measured as described before. Experimental groups were normalized to the untransfected control. After normalization, data were analyzed using the dose response-inhibition curve (nonlinear regression-variable slope) to determine the IC50 value (Prism6 software, GraphPad Software, Inc.).

UAS-(GGGGCC)3 flies [7] = test: External eye assay, control flies; format: in vivo, Drosophila; conditions: GMR-Gal4/UAS-(GGGGCC)3 flies; 100 μM feeding
Experimental: as §2

[8] = system: GGGGCC RNA foci in (GGGGCC)66-expressing SK-N-MC cells; test: RNA fluorescence in situ hybridization, GGGGCC RNA foci formation; format: cell-based; conditions: 10 μM, 48 h
Experimental: In situ hybridization was carried out to evaluate the effect of TAT-P3L on GGGGCC RNA foci formation in […]-expressing SK-N-MC cells. In brief, 0.8×10^5 SK-N-MC cells were seeded and grown on glass coverslips in 24-well plate. Ten micromolar of TAT-P3L or TAT-P3LS1 were added immediately after transfection of 1 μg of pAg3-(GGGGCC)2/66 plasmid. After 48 h, cells were fixed with 4% paraformaldehyde for 10 min and permeabilized with 0.5% Triton-X 100 for 5 min at room temperature. Cells were then washed with phosphate buffered saline treated with diethylpyrocarbonate (DEP-CPBS) three times, and hybridized with 40 nM denatured TYE563-labeled LNA probe (5′-TYE563-CCCGGCCCCGGCCCC-3′; SEQ ID NO:13; Exiqon, Inc) in hybridization buffer (50% formamide, 10% dextran sulfate, 2× saline-sodium citrate buffer (SSC), 50 mM sodium phosphate buffer) 6 h at 65° C. After washing once with 0.1% Tween-20/2×SSC for 5 min at room temperature, cell were further washed with 0.1×SSC 3 times at 65° C. for 10 min. Nuclei were counterstained with Hoechst 33342 (1 μg/ml, Thermo Fisher Scientific) prior to mounting coverslips. Images were obtained on an OLYMPUS FV1000 IX81-TIRF confocal microscope.

UAS-(GGGGCC)3 flies [9] = test: Lifespan assay, control flies; format: in vivo, Drosophila; conditions: 50 μM in food

In the case of AEIRLVSKDGKSKGIAYIEFK [P3L], the “subcellular localization of B23” value (nucleophosmin (B23)) is reported as “restored the subcellular localization”, the “lifespan (in words)” value (UAS-(GGGGCC)36 flies [1]) is reported as “extended lifespan” and the climbing defect (UAS-(GGGGCC)36 flies [2]) is reported as “rescued locomotor deficit”. The “eye degeneration (scar formation in eye)” value (UAS-(GGGGCC)36 flies [3]) was “significantly suppressed neurodegeneration”, the “subcellular localization of NCL” value (NCL) was “restored the subcellular localization” and the “climbing ability of control flies” value (UAS-(GGGGCC)3 flies [4]) was “not found to be affecting the climbing ability”.

In the case of “P3: peptide DGKSKGIAYIEFK (SEQ ID NO:2), derived from RRM2 of NCL, inventors' previous work (synthetic peptide construct P3)”, the “inhibition of expanded CAG repeat-mediated nucleolar stress and neurodegeneration” value [5] is given as “specifically inhibited expanded CAG repeat-mediated nucleolar stress”.

For “TAT-P3LMT1: TAT-P3L mutant carrying a single alanine substitution; mutant part SEQ ID NO:14 (YGRKKRRQRRRAAIRLVSKDGKSKGIAYIEFK; synthetic peptide construct TAT; synthetic peptide mutant PL3MT1)”, the “suppression of (GGGGCC)66-induced cell death compared with P3L (structure-activity relationship study)” value ([6]; 48 h) was “same suppression effect as the P3L peptide”.

With “TAT-P3LMT19: TAT-P3L mutant carrying a single alanine substitution; mutant part SEQ ID NO:32 (YGRKKRRQRRRAEIRLVSKDGKSKGIAYIEFA; synthetic peptide construct TAT; synthetic peptide mutant PL3MT19)” the “suppression of (GGGGCC)66-induced cell death compared with P3L (structure-activity relationship study)” value ([6]; 48 h) was “same suppression effect as the P3L peptide”.

For “TAT-RRM1-P1: TAT fusion peptide YGRKKRRQRRRTGTNRKFGYVD (SEQ ID NO: 7), derived from RRM1 of NCL (synthetic peptide construct TAT-RRM1-P1)”, the “effect on (GGGGCC)66-induced cell death (LDH enzyme activity in medium)” value ([6]; 48 h) was “did not demonstrate any modifying effect; also recorded: didn't alter”.

In the case of “TAT-RRM4-P1: TAT fusion peptide YGRKKRRQRRRRARIVTDRETGSSKGFGFVD (SEQ ID NO: 10), derived from RRM4 of NCL (synthetic peptide construct TAT-RRM4-P1)”, the “effect on (GGGGCC)66-induced cell death (LDH enzyme activity in medium)” value ([6]; 48 h) is reported as “did not demonstrate any modifying effect; also recorded: did not alter”.

With “YGRKKRRQRRRAEIRLVSKDGKSKGIAYIEFK [TAT-P3L]” the “eye defect in control flies” value (UAS-(GGGGCC)3 flies [7]) was “did not cause any observable eye defect”, the “RNA foci-like structure formation in control group” value [8] was “no RNA foci-like structure formed” and the IC50 ([6]; 48 h, concentration reducing LDH enzyme activity by 50% vs untreated control, read-out: IC50 in suppressing (GGGGCC)66-induced cell death) was 104 ± 24.6 nM. The “lifespan of control flies” value (UAS-(GGGGCC)3 flies [9]) was “did not alter the lifespan”.

In the case of “YGRKKRRQRRRGGEDIKSRVEAASILYFIKKK [TAT-P3LS1, reference compound]”, the “RNA foci-like structure formation in control group” value [8] is reported as “no RNA foci-like structure formed”.

In the case of “YGRKKRRQRRRTFIKVPQNQNGKSKGYAF [TAT-RRM3-P1]”, the “cytotoxicity elicited by the peptide by itself (LDH)” value ([6]; when the dose was raised) is reported as “elicited cytotoxicity”.
